Source: ChEMBL document CHEMBL1671659, “In vitro and in vivo properties of dihydrophthalazine antifolates, a novel family of antibacterial drugs” (Antimicrob Agents Chemother, 2009)
In brackets after ≈: the same amount, converted by molar mass. Activity calls are given as the source filed them. No cut-off for these calls is given here.

Assays:
Mycobacterium avium = experiment: Antibacterial activity against Mycobacterium avium assessed as inhibition of bacterial growth at <=4 ug/ml; assay type: functional; parameters: scale not given: the % may be the effect or the level left
Enterococcus faecalis [1] = experiment: Antibacterial activity against Enterococcus faecalis; assay type: functional
Enterococcus faecalis [2] = experiment: Antibacterial activity against Enterococcus faecalis in presence of 50 ug/ml thymidine; assay type: functional
Enterococcus faecalis [3] = experiment: Antibacterial activity against Enterococcus faecalis in presence of 250 ug/ml thymidine; assay type: functional
Enterococcus faecium [4] = experiment: Antibacterial activity against Enterococcus faecium; assay type: functional
Enterococcus faecium [5] = experiment: Antibacterial activity against Enterococcus faecium in presence of 50 ug/ml thymidine; assay type: functional
Enterococcus faecium [6] = experiment: Antibacterial activity against Enterococcus faecium in presence of 250 ug/ml thymidine; assay type: functional
Streptococcus pneumoniae [7] = experiment: Antibacterial activity against Streptococcus pneumoniae
Streptococcus pneumoniae [8] = experiment: Antibacterial activity against Streptococcus pneumoniae in presence of 50 ug/ml thymidine; assay type: functional
Streptococcus pneumoniae [9] = experiment: Antibacterial activity against Streptococcus pneumoniae in presence of 250 ug/ml thymidine; assay type: functional
Haemophilus influenzae [10] = experiment: Antibacterial activity against Haemophilus influenzae; assay type: functional
Haemophilus influenzae [11] = experiment: Antibacterial activity against Haemophilus influenzae in presence of 50 ug/ml thymidine
Haemophilus influenzae [12] = experiment: Antibacterial activity against Haemophilus influenzae in presence of 250 ug/ml thymidine; assay type: functional
Enterococcus faecalis [13] = experiment: Antibacterial activity against vancomycin-sensitive folA, dfrF-negative Enterococcus faecalis harboring A5T, K88N, F102Y mutation in dfrE gene; assay type: functional
Enterococcus faecalis [14] = experiment: Antibacterial activity against vancomycin-sensitive dfrE, dfrF-positive and folA-negative Enterococcus faecalis; assay type: functional
Enterococcus faecium [15] = experiment: Antibacterial activity against vancomycin-sensitive dfrE, dfrF-negative and folA-positive Enterococcus faecium; assay type: functional
Enterococcus faecium [16] = experiment: Antibacterial activity against vancomycin-resistant dfrE, dfrF-negative and folA-positive Enterococcus faecium; assay type: functional
Staphylococcus aureus [17] = experiment: Antibacterial activity against methicillin-sensitive dfrB-positive abd dfrA, dfrG-negative Staphylococcus aureus; assay type: functional
Staphylococcus aureus [18] = experiment: Antibacterial activity against methicillin-resistant dfrA within SCCmec-N1, dfrA and dfrG -negative Staphylococcus aureus harboring F98Y mutation in dfrB gene; assay type: functional
Staphylococcus aureus [19] = experiment: Antibacterial activity against methicillin-resistant dfrB, dfrA-positive and dfrA within SCCmec-N1, dfrG-negative Staphylococcus aureus; assay type: functional
Staphylococcus aureus [20] = experiment: Antibacterial activity against methicillin-resistant dfrB, dfrG-positive and dfrA-negative Staphylococcus aureus; assay type: functional
[21] = system: Staphylococcus epidermidis; experiment: Antibacterial activity against methicillin-sensitive dfrC-positive and dfrA, dfrD-negative Staphylococcus epidermidis; assay type: functional
[22] = system: Staphylococcus epidermidis; experiment: Antibacterial activity against methicillin-sensitive dfrA, dfrD-negative Staphylococcus epidermidis harboring F98Y mutation in dfrC gene; assay type: functional
[23] = system: Staphylococcus epidermidis; experiment: Antibacterial activity against methicillin-sensitive dfrC, dfrA-positive and dfrD-negative Staphylococcus epidermidis; assay type: functional
[24] = system: Staphylococcus epidermidis; experiment: Antibacterial activity against methicillin-resistant dfrC, dfrA-positive and dfrA within SCCmec-N1, dfrD-negative Staphylococcus epidermidis; assay type: functional
Staphylococcus aureus [25] = experiment: Antibacterial activity against methicillin, vancomycin, trimethoprim-sensitive Staphylococcus aureus ATCC 29213 harboring dfrB gene; assay type: functional
Staphylococcus aureus [26] = experiment: Antibacterial activity against vancomycin, trimethoprim-sensitive and methicillin-resistant Staphylococcus aureus ATCC 43300 harboring dfrB gene; assay type: functional
Staphylococcus aureus [27] = experiment: Antibacterial activity against vancomycin, trimethoprim, methicillin-resistant Staphylococcus aureus VRS1 harboring dfrA and dfrB genes; assay type: functional
[28] = system: Staphylococcus epidermidis; experiment: Antibacterial activity against methicillin, vancomycin, trimethoprim-sensitive Staphylococcus epidermidis ATCC 14990 harboring dfrC gene; assay type: functional
[29] = system: Staphylococcus epidermidis; experiment: Antibacterial activity against methicillin, vancomycin-sensitive and trimethoprim-resistant Staphylococcus epidermidis BAS000635 harboring dfrC and dfrA genes; assay type: functional
[30] = Inhibition of trimethoprim-sensitive Staphylococcus aureus DfrB type dihydrofolate reductase
Dihydrofolate reductase = Dihydrofolate reductase (Staphylococcus aureus, UniProt P0A017, F99Y); experiment: Inhibition of trimethoprim-resistant Staphylococcus aureus DfrB type dihydrofolate reductase F98Y mutant
[31] = Inhibition of trimethoprim-resistant Staphylococcus aureus Type S1 dihydrofolate reductase
HeLa = experiment: Cytotoxicity against human HeLa cells; assay type: cell-based
[32] = Genotoxicity in Salmonella enterica serovar Typhimurium assessed as increase in number of bacterial revertant colonies by Ames test; assay type: toxicity; conditions: salmonella enterica subsp. enterica serovar typhimurium
Mus musculus [33] = experiment: Hepatotoxicity in NMRI mouse assessed as increase in liver weight at 400 mg/kg administered through oral gavage for 5 days; assay type: toxicity, organism-based; parameters: dose 400 mg/kg, route oral; conditions: in vivo, 120 h
Mus musculus [34] = experiment: Hepatotoxicity in NMRI mouse assessed as increase in liver weight at 400 mg/kg administered through oral gavage for 10 days; assay type: toxicity, organism-based; parameters: dose 400 mg/kg, route oral; conditions: in vivo, 240 h
[35] = Oral bioavailability in NMRI mouse; assay type: ADME, organism-based; conditions: in vivo
[36] = Cmax in NMRI mouse blood at 25 mg/kg administered through oral gavage measured after 7 hrs; assay type: ADME, organism-based; parameters: dose 25 mg/kg, route oral
[37] = Tmax in NMRI mouse blood at 25 mg/kg administered through oral gavage measured after 7 hrs; assay type: ADME, organism-based; parameters: dose 25 mg/kg, route oral
[38] = AUC (0 to t) in NMRI mouse blood at 25 mg/kg administered through oral gavage after 7 hrs; assay type: ADME, organism-based; parameters: time < 7 hr, dose 25 mg/kg, route oral
Mus musculus [39] = experiment: Hepatotoxicity in NMRI mouse assessed as inflammatory infiltrates at 400 mg/kg administered through oral gavage for 5 days; assay type: toxicity, organism-based; parameters: dose 400 mg/kg, route oral; conditions: in vivo, 120 h
Mus musculus [40] = experiment: Hepatotoxicity in NMRI mouse assessed as inflammatory infiltrates at 400 mg/kg administered through oral gavage for 10 days; assay type: toxicity, organism-based; parameters: dose 400 mg/kg, route oral; conditions: in vivo, 240 h
Mus musculus [41] = experiment: Hepatotoxicity in NMRI mouse assessed as single-cell necrosis at 400 mg/kg administered through oral gavage for 5 days; assay type: toxicity, organism-based; parameters: dose 400 mg/kg, route oral; conditions: in vivo, 120 h
Mus musculus [42] = experiment: Hepatotoxicity in NMRI mouse assessed as single-cell necrosis at 400 mg/kg administered through oral gavage for 10 days; assay type: toxicity, organism-based; parameters: dose 400 mg/kg, route oral; conditions: in vivo, 240 h
Mus musculus [43] = experiment: Hepatotoxicity in NMRI mouse assessed as increase in mitosis at 400 mg/kg administered through oral gavage for 10 days; assay type: toxicity, organism-based; parameters: dose 400 mg/kg, route oral; conditions: in vivo, 240 h
Mus musculus [44] = experiment: Hepatotoxicity in NMRI mouse assessed as increase in mitosis at 400 mg/kg administered through oral gavage for 5 days; assay type: toxicity, organism-based; parameters: dose 400 mg/kg, route oral; conditions: in vivo, 120 h
Staphylococcus aureus [45] = experiment: Antibacterial activity against trimethoprim-sensitive Staphylococcus aureus ATCC 29213; assay type: functional
Staphylococcus aureus [46] = experiment: Antibacterial activity against trimethoprim-sensitive Staphylococcus aureus ATCC 29213 infected in NMRI mouse model of septicemia assessed as complete protection from infections at 3.1 mg/kg, iv; assay type: functional, organism-based; parameters: dose 3.1 mg/kg
Staphylococcus aureus [47] = experiment: Antibacterial activity against trimethoprim-sensitive Staphylococcus aureus ATCC 29213 infected in NMRI mouse model of septicemia assessed as succumbed to infections at 1.6 mg/kg, iv; assay type: functional, organism-based; parameters: dose 1.6 mg/kg
Staphylococcus aureus [48] = experiment: Antibacterial activity against trimethoprim-sensitive Staphylococcus aureus ATCC 29213 infected in NMRI mouse model of septicemia; assay type: functional
Staphylococcus aureus [49] = experiment: Antibacterial activity against trimethoprim-resistant Staphylococcus aureus BAS003908; assay type: functional
Staphylococcus aureus [50] = experiment: Antibacterial activity against trimethoprim-resistant Staphylococcus aureus BAS003908 infected in NMRI mouse model of septicemia; assay type: functional
Mus musculus [51] = experiment: Toxicity in po dosed NMRI mouse; assay type: organism-based; conditions: in vivo

Compound: COc1ncc(C2c3ccccc3C=NN2C(=O)/C=C/c2cc(Cc3cnc(N)nc3N)cc(OC)c2OC)cn1 (stereo not given)
- Activity (Mycobacterium avium): 77%
- MIC (Enterococcus faecalis [1]): ≤ 0.25 µg/mL
- MIC (Enterococcus faecalis [2]): ≤ 0.25 µg/mL
- MIC (Enterococcus faecalis [3]): 1 µg/mL
- MIC (Enterococcus faecium [4]): 1 µg/mL (≈ 1.81 µM)
- MIC (Enterococcus faecium [5]): ≥ 128 µg/mL
- MIC (Enterococcus faecium [6]): > 128 µg/mL
- MIC (Streptococcus pneumoniae [7]): 64 µg/mL (≈ 116 µM)
- MIC (Streptococcus pneumoniae [8]): 32 µg/mL
- MIC (Streptococcus pneumoniae [9]): ≥ 128 µg/mL
- MIC (Haemophilus influenzae [10]): > 128 µg/mL
- MIC (Haemophilus influenzae [11]): 64 µg/mL
- MIC (Haemophilus influenzae [12]): 32 µg/mL
- MIC (Enterococcus faecalis [13]): 0.5 µg/mL (≈ 0.905 µM)
- MIC (Enterococcus faecalis [14]): > 128 µg/mL
- MIC (Enterococcus faecium [15]): ≤ 0.25 µg/mL
- MIC (Enterococcus faecium [16]): 2 µg/mL (≈ 3.62 µM)
- MIC (Staphylococcus aureus [17]): ≤ 0.25 µg/mL
- MIC (Staphylococcus aureus [18]): 0.5 µg/mL (≈ 0.905 µM)
- MIC (Staphylococcus aureus [19]): 1 µg/mL (≈ 1.81 µM)
- MIC (Staphylococcus aureus [19]; Staphylococcus aureus, read-out: MIC): 1 µg/mL (≈ 1.81 µM)
- MIC (Staphylococcus aureus [20]): 32 µg/mL (≈ 57.9 µM)
- MIC [21]: ≤ 0.25 µg/mL
- MIC [22]: 0.5 µg/mL (≈ 0.905 µM)
- MIC [23]: 0.5 µg/mL (≈ 0.905 µM)
- MIC [24]: 0.5 µg/mL (≈ 0.905 µM)
- MIC (Staphylococcus aureus [25]): 0.5 µg/mL (≈ 0.905 µM)
- MIC (Staphylococcus aureus [26]): 0.25 µg/mL (≈ 0.452 µM)
- MIC (Staphylococcus aureus [27]): 4 µg/mL (≈ 7.24 µM)
- MIC [28]: 0.125 µg/mL (≈ 0.226 µM)
- MIC [29]: 4 µg/mL (≈ 7.24 µM)
- IC50 [30]: 5.2 nM
- IC50 (Dihydrofolate reductase): 22.6 nM
- IC50 [31]: 121 nM
- IC50 (HeLa): 12000 nM
- Activity [32]: Non-toxic
- Activity (Mus musculus [33]): < 10%
- Activity (Mus musculus [34]): < 10%
- bioavailability [35]: 25%
- Cmax [36]: 3240 ng/mL
- Tmax [37]: 30 min
- AUC(0-t) at 7 h [38]: 10600 ng·h/mL
- Activity (Mus musculus [39]): < 10%
- Activity (Mus musculus [40]): < 10%
- Activity (Mus musculus [41]): < 10%
- Activity (Mus musculus [42]): < 10%
- Activity (Mus musculus [43]): < 10%
- Activity (Mus musculus [44]): < 10%
- MIC (Staphylococcus aureus [45]): < 0.25 µg/mL
- Activity (Staphylococcus aureus [46]): Active
- Activity (Staphylococcus aureus [47]): inactive
- ED50 (Staphylococcus aureus [48]): 1.6 mg/kg
- MIC (Staphylococcus aureus [49]): 0.5 µg/mL (≈ 0.905 µM)
- ED50 (Staphylococcus aureus [50]): 3.1 mg/kg
- Activity (Mus musculus [51]): 400 mg/kg
